Columns and labels:
[1] = biological target: T1, EGFR tyrosine kinase (Homo sapiens, UniProt P00533); assay: Protein tyrosine kinase phosphorylation assay, Test (a), EGFR; type: biochemical; conditions: recombinant intracellular fragment, ATP at Km concentration; read-out: IC50 (μM) Test (a): Inhibition of EGFR tyrosine kinase protein phosphorylation
T1 construct: Recombinant intracellular fragments of EGFR, erbB2 and erbB4; made in house; host or cells: baculovirus/Sf21 insect cells (cleared lysate used)
Procedure: (§1) This test measures the ability of a test compound to inhibit the phosphorylation of a tyrosine containing polypeptide substrate by an erb receptor tyrosine kinase enzyme.
(§2) Recombinant intracellular fragments of EGFR, erbB2 and erbB4 (accession numbers X00588, X03363 and L07868 respectively) were cloned and expressed in the baculovirus/Sf21 system. Lysates were prepared from these cells by treatment with ice-cold lysis buffer (20 mM N-2-hydroxyethylpiperizine-N′-2-ethanesulfonic acid (HEPES) pH7.5, 150 mM NaCl, 10% glycerol, 1% Triton X-100, 1.5 mM MgCl2, 1 mM ethylene glycol-bis(β-aminoethyl ether) N′,N′,N′,N′-tetraacetic acid (EGTA), plus protease inhibitors and then cleared by centrifugation.
(§3) Constitutive kinase activity of these recombinant proteins was determined by their ability to phosphorylate a synthetic peptide (made up of a random co-polymer of Glutamic Acid, Alanine and Tyrosine in the ratio of 6:3:1). Specifically, Maxisorb™ 96-well immunoplates were coated with synthetic peptide (0.2 μg of peptide in a 100 μl phosphate buffered saline (PBS) solution and incubated at 4° C. overnight). Plates were washed in 50 mM HEPES pH 7.4 at room temperature to remove any excess unbound synthetic peptide. EGFR or erbB2 activities were assessed by incubation in peptide coated plates for 20 minutes at room temperature in 50 mM HEPES pH 7.4 at room temperature, adenosine trisphosphate (ATP) at Km concentration for the respective enzyme, 10 mM MnCl2, 0.05 mM Na3VO4, 0.1 mM DL-dithiothreitol (DTT), 0.05% Triton X-100 with test compound in DMSO (final concentration of 2.5%). Reactions were terminated by the removal of the liquid components of the assay followed by washing of the plates with PBS-T (phosphate buffered saline with 0.05% Tween 20).
(§4) The immobilised phospho-peptide product of the reaction was detected by immunological methods. Firstly, plates were incubated for 90 minutes at room temperature with anti-phosphotyrosine primary antibodies that were raised in the mouse (4G10 from Upstate Biotechnology). Following extensive washing, plates were treated with Horseradish Peroxidase (HRP) conjugated sheep anti-mouse secondary antibody (NXA931 from Amersham) for 60 minutes at room temperature. After further washing, HRP activity in each well of the plate was measured colorimetrically using 22′-Azino-di-[3-ethylbenzthiazoline sulfonate (6)] diammonium salt crystals (ABTS™ from Roche) as a substrate.
(§5) Quantification of colour development and thus enzyme activity was achieved by the measurement of absorbance at 405 nm on a Molecular Devices ThermoMax microplate reader. Kinase inhibition for a given compound was expressed as an IC50 value. […] The range of phosphorylation was calculated from the positive (vehicle plus ATP) and negative (vehicle minus ATP) control values.

[2] = biological target: T2, erbB2 tyrosine kinase (Homo sapiens, UniProt P04626); assay: Protein tyrosine kinase phosphorylation assay, Test (a), erbB2; type: biochemical; conditions: recombinant intracellular fragment, ATP at Km concentration; read-out: IC50 (μM) Test (a): Inhibition of erbB2 tyrosine kinase protein phosphorylation
T2 construct: Recombinant intracellular fragments of EGFR, erbB2 and erbB4; made in house; host or cells: baculovirus/Sf21 insect cells (cleared lysate used)
Procedure: as §1, §2, §3, §4, §5

[3] = biological target: T3, erbB2 in a MCF7 derived cell line (Clone 24 cells) (Homo sapiens, UniProt P04626); assay: Clone 24 phospho-erbB2 cell assay, Test (d); type: cell-based; conditions: phosphorylation of erbB2 in a MCF7 derived cell line; read-out: IC50 (μM) Test (e): Inhibition of erbB2 tyrosine kinase protein phosphorylation
T3 construct: a cell line that overexpresses full length wild type erbB2 protein; expressed in transfected cells; host or cells: MCF7 (breast carcinoma) cells stably transfected, 'Clone 24'
Procedure: This immunofluorescence end point assay measures the ability of a test compound to inhibit the phosphorylation of erbB2 in a MCF7 (breast carcinoma) derived cell line which was generated by transfecting MCF7 cells with the full length erbB2 gene using standard methods to give a cell line that overexpresses full length wild type erbB2 protein (hereinafter ‘Clone 24’ cells).
Clone 24 cells were cultured in Growth Medium (phenol red free Dulbecco's modified Eagle's medium (DMEM) containing 10% foetal bovine serum, 2 mM glutamine and 1.2 mg/ml G418) in a 7.5% CO2 air incubator at 37° C. Cells were harvested from T75 stock flasks by washing once in PBS (phosphate buffered saline, pH7.4, Gibco No. 10010-015) and harvested using 2 mls of Trypsin (1.25 mg/ml)/ethylaminediaminetetraacetic acid (EDTA) (0.8 mg/ml) solution. The cells were resuspended in Growth Medium. Cell density was measured using a haemocytometer and viability was calculated using Trypan Blue solution before being further diluted in Growth Medium and seeded at a density of 1×10^4 cells per well (in 100 ul) into clear bottomed 96 well plates (Packard, No. 6005182).
3 days later, Growth Medium was removed from the wells and replaced with 100 ul Assay Medium (phenol red free DMEM, 2 mM glutamine, 1.2 mg/ml G418) either with or without erbB inhibitor compound. Plates were returned to the incubator for 4 hours and then 20 μl of 20% formaldehyde solution in PBS was added to each well and the plate was left at room temperature for 30 minutes. This fixative solution was removed with a multichannel pipette, 100 μl of PBS was added to each well and then removed with a multichannel pipette and then 50 μl PBS was added to each well. Plates were then sealed and stored for up to 2 weeks at 4° C.
Immunostaining was performed at room temperature. Cells were washed once with 200 μl PBS/Tween 20 (made by adding 1 sachet of PBS/Tween dry powder (Sigma, No. P3563) to 1 L of double distilled H2O) using a plate washer, then 100 μl of 0.5% Triton X-100/PBS was added to each well to permeabalise the cells. After 10 minutes, the plates were washed with 200 μl PBS/Tween 20 and then 100 μl Blocking Solution (5% Marvel dried simmed milk (Nestle) in PBS) was added per well and plates were incubated for 15 minutes. […] Plates were analysed within six hours of completing the immunostaining.
The Fluorescence signal is each well was measured using an Acumen Explorer Instrument (Acumen Bioscience Ltd.), a plate reader that can be used to rapidly quantitate features of images generated by laser-scanning. […] Fluorescence dose response data obtained with each compound was exported into a suitable software package (such as Origin) to perform curve fitting analysis. […]

T3 sequence (P04626 23-1255): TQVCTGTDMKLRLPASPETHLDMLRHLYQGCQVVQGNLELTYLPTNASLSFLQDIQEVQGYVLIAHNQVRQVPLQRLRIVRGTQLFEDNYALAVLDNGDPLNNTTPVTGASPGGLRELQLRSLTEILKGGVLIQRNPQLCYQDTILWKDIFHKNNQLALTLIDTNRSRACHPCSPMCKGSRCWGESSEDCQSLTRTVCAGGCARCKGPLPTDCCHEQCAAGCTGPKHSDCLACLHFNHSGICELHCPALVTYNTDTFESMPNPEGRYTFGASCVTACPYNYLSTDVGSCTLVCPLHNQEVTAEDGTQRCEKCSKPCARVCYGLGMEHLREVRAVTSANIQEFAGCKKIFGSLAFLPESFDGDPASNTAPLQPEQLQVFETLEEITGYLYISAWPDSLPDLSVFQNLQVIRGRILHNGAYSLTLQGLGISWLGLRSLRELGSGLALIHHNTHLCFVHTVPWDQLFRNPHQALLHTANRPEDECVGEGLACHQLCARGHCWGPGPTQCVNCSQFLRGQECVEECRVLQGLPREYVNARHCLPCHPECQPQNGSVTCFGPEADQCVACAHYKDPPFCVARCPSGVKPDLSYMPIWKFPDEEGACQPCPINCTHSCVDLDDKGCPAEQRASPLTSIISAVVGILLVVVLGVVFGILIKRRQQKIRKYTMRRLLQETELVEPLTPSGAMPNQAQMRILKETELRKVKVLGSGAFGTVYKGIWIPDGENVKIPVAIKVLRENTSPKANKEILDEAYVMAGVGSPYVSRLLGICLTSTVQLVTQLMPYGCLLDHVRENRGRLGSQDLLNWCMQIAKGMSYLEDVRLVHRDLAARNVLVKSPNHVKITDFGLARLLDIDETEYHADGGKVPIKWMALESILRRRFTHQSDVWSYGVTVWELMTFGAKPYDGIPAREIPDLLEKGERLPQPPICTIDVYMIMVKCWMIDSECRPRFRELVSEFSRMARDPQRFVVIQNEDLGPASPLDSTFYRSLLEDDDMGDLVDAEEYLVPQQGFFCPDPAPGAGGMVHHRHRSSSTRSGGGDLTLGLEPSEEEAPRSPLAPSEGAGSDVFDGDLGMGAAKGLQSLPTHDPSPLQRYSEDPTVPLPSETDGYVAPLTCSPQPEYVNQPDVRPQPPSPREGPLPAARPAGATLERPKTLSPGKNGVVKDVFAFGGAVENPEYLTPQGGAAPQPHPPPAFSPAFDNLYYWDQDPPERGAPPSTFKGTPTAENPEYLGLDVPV
T1 sequence (P00533 669-1210 limits assumed): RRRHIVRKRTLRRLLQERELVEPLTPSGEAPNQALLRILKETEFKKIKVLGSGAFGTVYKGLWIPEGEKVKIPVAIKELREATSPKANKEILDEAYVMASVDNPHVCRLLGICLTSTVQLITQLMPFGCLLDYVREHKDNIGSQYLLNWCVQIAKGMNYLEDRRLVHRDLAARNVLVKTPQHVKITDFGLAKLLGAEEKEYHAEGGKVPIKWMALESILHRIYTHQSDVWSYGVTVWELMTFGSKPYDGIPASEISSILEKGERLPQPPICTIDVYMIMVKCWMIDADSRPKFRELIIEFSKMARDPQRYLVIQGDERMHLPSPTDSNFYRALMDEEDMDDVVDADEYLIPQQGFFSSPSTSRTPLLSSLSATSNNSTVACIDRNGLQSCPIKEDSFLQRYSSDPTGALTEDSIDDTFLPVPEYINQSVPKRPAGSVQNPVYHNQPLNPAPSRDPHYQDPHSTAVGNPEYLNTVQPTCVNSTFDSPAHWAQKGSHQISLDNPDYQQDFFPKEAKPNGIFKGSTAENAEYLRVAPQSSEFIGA
T2 sequence (P04626 676-1255 limits assumed): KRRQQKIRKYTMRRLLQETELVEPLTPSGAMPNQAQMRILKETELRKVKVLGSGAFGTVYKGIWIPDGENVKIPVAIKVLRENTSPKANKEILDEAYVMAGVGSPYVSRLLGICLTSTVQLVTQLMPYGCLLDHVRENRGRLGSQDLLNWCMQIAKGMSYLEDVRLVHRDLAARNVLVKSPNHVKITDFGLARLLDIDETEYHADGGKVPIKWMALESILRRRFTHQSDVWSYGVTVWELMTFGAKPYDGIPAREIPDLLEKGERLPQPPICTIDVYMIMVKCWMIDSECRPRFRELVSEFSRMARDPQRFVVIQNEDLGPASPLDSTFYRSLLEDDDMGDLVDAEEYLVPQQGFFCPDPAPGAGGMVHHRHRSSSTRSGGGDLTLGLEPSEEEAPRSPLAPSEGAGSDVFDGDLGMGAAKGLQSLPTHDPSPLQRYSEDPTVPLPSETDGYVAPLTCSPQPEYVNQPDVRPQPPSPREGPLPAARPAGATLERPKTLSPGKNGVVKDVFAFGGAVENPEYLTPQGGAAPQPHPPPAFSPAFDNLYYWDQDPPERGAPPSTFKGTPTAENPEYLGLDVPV

SMILES | IC50 [1] [µM] | IC50 [2] [µM] | IC50 [3] [µM]
C[C@H](Oc1cccc2ncnc(Nc3ccc(OCc4ccccn4)c(Cl)c3)c12)C(=O)N1CCC[C@H]1CO [Example 34, ((2S)-1-{(2S)-2-[(4-{[3-Chloro-4-(pyridin-2-ylmethoxy)phenyl]amino}quinazolin-5-yl)oxy]propanoyl}pyrrolidin-2-yl)methanol] | 0.135 | 0.002 | 0.001
CC(C)(Oc1cccc2ncnc(Nc3ccc(OCc4ccccn4)c(Cl)c3)c12)C(N)=O [Example 42, 2-[(4-{[3-Chloro-4-(pyridin-2-ylmethoxy)phenyl]amino}quinazolin-5-yl)oxy]-2-methylpropanamide] | 24.8 | 0.012 | 0.002
C[C@@H](Oc1cccc2ncnc(Nc3ccc(OCc4ccccn4)c(Cl)c3)c12)C(=O)N(C)C [Example 21, (2R)-2-[(4-{[3-Chloro-4-(pyridin-2-ylmethoxy)phenyl]amino}quinazolin-5-yl)oxy]-N,N-dimethylpropanamide] | 0.072 | 0.002 | 0.001
Cc1ccc(Oc2ccc(Nc3ncnc4cccc(OCC(=O)NCCO)c34)cc2C)cn1 [Example 52, N-(2-Hydroxyethyl)-2-{[4-({3-methyl-4-[(6-methylpyridin-3-yl)oxy]phenyl}amino)quinazolin-5-yl]oxy}acetamide] | 1.47 | 0.002 | 0.019

— patent US20070232607A1, “Quinazoline Derivatives as Erbb Receptor Tyrosine kinases” (priority 2004, published 2007)
